Molecular target: T1, GBA2 (Homo sapiens, UniProt Q9HCG7)
T1 sequence (Q9HCG7 1-927): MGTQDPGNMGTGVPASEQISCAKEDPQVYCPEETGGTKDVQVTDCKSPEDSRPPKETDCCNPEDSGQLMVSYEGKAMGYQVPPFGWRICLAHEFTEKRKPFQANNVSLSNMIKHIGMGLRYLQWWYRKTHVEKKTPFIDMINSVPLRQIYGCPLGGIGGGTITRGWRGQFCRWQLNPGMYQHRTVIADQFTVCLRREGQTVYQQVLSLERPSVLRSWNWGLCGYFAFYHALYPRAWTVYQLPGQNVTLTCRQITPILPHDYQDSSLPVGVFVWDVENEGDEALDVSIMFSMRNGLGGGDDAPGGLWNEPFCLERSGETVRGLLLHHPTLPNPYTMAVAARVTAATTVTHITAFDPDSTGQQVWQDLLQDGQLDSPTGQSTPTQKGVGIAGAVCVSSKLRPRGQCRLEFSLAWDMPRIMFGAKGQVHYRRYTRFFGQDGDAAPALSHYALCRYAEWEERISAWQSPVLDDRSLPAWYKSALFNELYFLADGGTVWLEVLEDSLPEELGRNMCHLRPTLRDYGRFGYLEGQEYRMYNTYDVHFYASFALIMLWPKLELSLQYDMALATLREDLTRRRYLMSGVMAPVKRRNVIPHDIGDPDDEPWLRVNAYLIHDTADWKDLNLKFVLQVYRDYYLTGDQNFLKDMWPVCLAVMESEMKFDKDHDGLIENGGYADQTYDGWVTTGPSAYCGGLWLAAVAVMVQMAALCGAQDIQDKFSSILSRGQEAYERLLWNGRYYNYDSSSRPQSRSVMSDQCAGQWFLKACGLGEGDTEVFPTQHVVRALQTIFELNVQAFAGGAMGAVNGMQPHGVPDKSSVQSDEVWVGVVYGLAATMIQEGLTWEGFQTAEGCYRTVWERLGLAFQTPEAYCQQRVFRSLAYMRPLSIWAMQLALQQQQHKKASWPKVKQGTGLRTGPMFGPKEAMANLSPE
Test: Confocal microscopy of ABP 4 staining after inhibitor pre-treatment in GBA2 overexpressing cells
Type: cell-based
Design: expressed in transfected cells; host or cells: HEK293T GBA1/GBA2 KO (CRISPR/Cas9), GBA2 overexpressed
Settings: 16 h pre-treatment (21 100 nM, 22 500 nM), then ABP 4 50 nM 2 h; GBA2 OE HEK293T cells
Experimental: To confirm the specific staining of GBA2, cells overexpressing GBA2 were pre-treated with either the specific GBA1 inhibitor 21 [32] or the GBA1/GBA2 inhibitor 22.[36]
Figure S11. Confocal fluorescence microscopy of A) HEK293T wild-type (WT), GBA2 overexpression (OE) or GBA1/2 knock out (KO) + GBA2 overexpression (OE) cells. Cells were pre-treated with either DMSO, GBA1/GBA2 inhibitor 22 or GBA1 selective inhibitor 21, and afterwards incubated with β-D-Araf aziridine BODIPY-red ABP 4 (50 nM) for 2 h. Subsequently, cells were fixed and stained for GBA1 (Green) with an anti-GBA1 antibody. B) RAW264.7 cells pre-treated with either DMSO or GBA1/GBA2 inhibitor 22 and incubated β-D-Araf aziridine ABP 4 for (50 nM) for 2 h. […]
Figure S12. […] Competitive ABPP allow for the determination of apparent IC50 values by quantification of the fluorescence intensity of ABP 7 as described in experimental section. […]
2.12 Reactivity of β-D-Araf aziridines towards GBA2 orthologue in other species β-D-Araf aziridine ABP 3-5 or ABP 7 was incubated with homogenates of zebrafish (Danio rerio) larvae or mice brain for 1 h at 37 °C. […] The zebrafish homogenates were passed through a desalting column (in the same way as described for the irreversibility evaluation above) to remove interference from biological pigments when scanning at λEX 473 nm and λEM ≥ 510 nm for BODIPY green fluorescence. […]

Question: How did the “Effect of pre-treatment on ABP 4 staining of GBA2” value turn out when `CCCCCN1[C@@H]2[C@H](CO)[C@@H](O)[C@H](O)[C@@H](O)[C@@H]21` (stereo partly shown) [Inhibitor 22] was run?
Answer: Its value is “completely abrogated”.

— article PMC11375437, “Selective labelling of GBA2 in cells with fluorescent β-D-arabinofuranosyl cyclitol aziridines” (Chemical Science, 2024)
